Patent US6652874B2, “Pharmaceutical preparations and methods for their regional administration” (FemmePharma, priority 1997, dated 2003)

Key:
[1] = rat, in vivo
Description: Mature female Sprague-Dawley rats were used for the experiment. 1 mg of the microparticulate danazol was delivered in a volume of 50 μl to the vaginal vault and the animals sacrificed at the times noted below. The uterus and ovaries were separately homogenized and blood was drawn. All tissues and biological samples were processed. Danazol was extracted and assayed by HPLC methodology.
Danazol was extracted from serum and tissue hexane/chloroform 80/20. For tissues, 1 ml aliquote of each homogenate was taken. The extracted danazol was reconstituted in a water/acetonitrile mobile phase and a Beckman Ultrasphere 5 micron, 4.6 mm×15 cm reverse phase column (C-18 RP) was used for all the HPLC analyses. A danazol recovery study was conducted using danazol drug product. The recovery was determined by comparing the extracted signal with unextracted signal.

[2] = high doses, up to 800 mg daily; cited from earlier work

Structure (SMILES): C#C[C@]1(O)CC[C@H]2[C@@H]3CCC4=Cc5oncc5C[C@]4(C)[C@H]3CC[C@@]21C [Danazole, Danazol]
- Serum drug levels (in words) [1]: almost undetectable
- Adverse side effects [2]: adverse side effects are seen
